Common to all, as to assay type: biochemical
Experiment [1] deals with T1, PRMT5 (Homo sapiens, UniProt O14744).
T1 construct: purchased Viva (custom protein)
Kind of experiment: PRMT5 IC50 assay in the presence of SAM as cofactor. An excerpt: (§1) Table 1a indicates IC50 values (μM) against PRMT5 for exemplary compounds in the presence of SAM as cofactor, with no cofactor and with MTA as cofactor, respectively (columns 3-5). […] The Ki values can be calculated from the IC50 values as described in the Examples section. As detailed in the Examples section, for the assay performed in the presence of SAM, IC50=Ki×1.5 (Ki=IC50/1.5). For the assay performed in the presence of MTA, IC50=Ki×13.5 (Ki=IC50/13.5). Column 6 indicates the ratio between the Ki of compounds in the presence of SAM and the Ki of compounds in the presence of MTA

The target of experiment [2] is T1, PRMT5. Briefly: PRMT5 IC50 assay with no cofactor.
Description: as §1

The target of experiment [3] is T1, PRMT5. Briefly: PRMT5 IC50 assay in the presence of MTA as cofactor. The conditions noted are these: for IC50: PRMT5, MTA as cofactor.
Description: as §1

The mark [4] stands for this setting: ratio between the Ki in the presence of SAM and the Ki in the presence of MTA.
Where [5] appears, read: ratio between Ki in the presence of SAM and Ki in the presence of MTA.

T1 sequence (O14744 whole entry): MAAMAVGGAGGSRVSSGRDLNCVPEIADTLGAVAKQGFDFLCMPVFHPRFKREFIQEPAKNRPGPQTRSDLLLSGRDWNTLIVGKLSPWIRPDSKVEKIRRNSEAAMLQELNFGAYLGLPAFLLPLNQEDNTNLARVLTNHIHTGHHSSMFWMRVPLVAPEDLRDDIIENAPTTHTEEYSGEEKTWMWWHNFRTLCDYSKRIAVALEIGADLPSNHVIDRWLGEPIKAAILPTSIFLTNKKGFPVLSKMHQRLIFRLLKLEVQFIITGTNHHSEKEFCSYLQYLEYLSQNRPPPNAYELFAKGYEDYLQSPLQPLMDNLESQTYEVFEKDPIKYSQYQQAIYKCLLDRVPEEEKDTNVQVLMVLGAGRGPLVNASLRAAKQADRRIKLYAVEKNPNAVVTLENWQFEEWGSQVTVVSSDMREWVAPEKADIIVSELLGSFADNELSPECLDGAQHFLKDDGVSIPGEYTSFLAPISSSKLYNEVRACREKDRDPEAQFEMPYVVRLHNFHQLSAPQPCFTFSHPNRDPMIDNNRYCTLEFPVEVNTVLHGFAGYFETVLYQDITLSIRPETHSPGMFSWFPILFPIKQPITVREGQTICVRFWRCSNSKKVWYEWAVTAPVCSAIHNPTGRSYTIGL
T1 sequence (Q9BQA1 whole entry partner): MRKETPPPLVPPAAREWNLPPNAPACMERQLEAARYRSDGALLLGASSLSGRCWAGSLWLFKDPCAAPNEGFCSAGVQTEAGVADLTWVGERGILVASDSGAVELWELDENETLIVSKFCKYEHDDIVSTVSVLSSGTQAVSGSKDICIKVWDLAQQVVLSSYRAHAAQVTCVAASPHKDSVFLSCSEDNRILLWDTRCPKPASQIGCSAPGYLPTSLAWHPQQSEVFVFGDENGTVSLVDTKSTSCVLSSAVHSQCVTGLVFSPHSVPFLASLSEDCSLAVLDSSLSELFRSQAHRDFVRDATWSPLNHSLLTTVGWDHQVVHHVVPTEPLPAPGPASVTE

For the molecule `CC(=O)N1CC(Nc2cc(C(=O)NC[C@H](O)CN3CCc4c(ccc(OCc5cnco5)c4C)C3)ncn2)C1` [Compound 543, 6-[(1-acetylazetidin-3-yl)amino]-N-[(2S)-2-hydroxy-3-{5-methyl-6-[(1,3-oxazol-5-yl)methoxy]-1,2,3,4-tetrahydroisoquinolin-2-yl}propyl]pyrimidine-4-carboxamide], the IC50 (as a rule, the concentration that inhibits the measured activity by half) on PRMT5 [1] was 0.5 to 5 µM; against PRMT5 [2], ≥ 5 µM; on PRMT5 [3], 0.5 to 5 µM. Also, the “SAM/MTA Ratio” value on PRMT5 [3] (setting [4]) is “A (a Ki ratio greater than or equal to 10 fold between the Ki in the presence of SAM and the Ki in the presence of MTA)”.

Turning to `CC1(CCC(=O)N2CCC(Nc3cc(C(=O)NC[C@H](O)CN4CCc5cc(OCc6cnco6)ccc5C4)ncn3)CC2)N=N1` [Compound 363, N-[(2S)-2-hydroxy-3-[6-(oxazol-5-ylmethoxy)-3N-dihydro-1H-isoquinolin-2-yl]propyl]-6-[[1-[3-(3-methyldiazirine-3-yl)propanoyl]-4-piperidyl]amino]pyrimidine-4-carboxamide], the 50% inhibitory concentration (IC50) at PRMT5 [1] was 0.05 to 0.5 µM; at PRMT5 [2] (read-out: No Co-factor IC50) it was 0.5 to 5 µM; on PRMT5 [3], 0.05 to 0.5 µM. The “SAM/MTA Ratio” value at PRMT5 [3] (setting [5]) was “A (a Ki ratio greater than or equal to 10 fold between the Ki in the presence of SAM and the Ki in the presence of MTA)”.

For `CC(=O)N1CC2CC1CC2Nc1cc(C(=O)NC[C@H](O)CN2CCc3cc(OCc4ocnc4C)ccc3C2)ncn1` (stereo partly drawn) [Compound 632, 6-({2-acetyl-2-azabicyclo[2.2.1]heptan-5-yl}amino)-N-[(2S)-2-hydroxy-3-{6-[(4-methyl-1,3-oxazol-5-yl)methoxy]-1,2,3,4-tetrahydroisoquinolin-2-yl}propyl]pyrimidine-4-carboxamide], the IC50 is 0.05 to 0.5 µM on PRMT5 [1], ≥ 5 µM on PRMT5 [2] (read-out: No Co-factor IC50) and 0.05 to 0.5 µM at PRMT5 [3]. In addition, the “SAM/MTA Ratio” value at PRMT5 [3] (setting [5]) was “A (a Ki ratio greater than or equal to 10 fold between the Ki in the presence of SAM and the Ki in the presence of MTA)”.

As to `CCC(=O)N1CC(Nc2cc(C(=O)NC[C@H](O)CN3CCc4c(ccc(OCc5cnco5)c4C)C3)ncn2)C1` [Compound 567, N-[(2S)-2-hydroxy-3-{5-methyl-6-[(1,3-oxazol-5-yl)methoxy]-1,2,3,4-tetrahydroisoquinolin-2-yl}propyl]-6-[(1-propanoylazetidin-3-yl)amino]pyrimidine-4-carboxamide], the IC50 was 0.05 to 0.5 µM on PRMT5 [1], ≥ 5 µM against PRMT5 [2] and 0.05 to 0.5 µM at PRMT5 [3]. For the same molecule, the “SAM/MTA Ratio” value at PRMT5 [3] (setting [4]) is “A (a Ki ratio greater than or equal to 10 fold between the Ki in the presence of SAM and the Ki in the presence of MTA)”.

On to `COCC(=O)N1CC(Nc2cc(C(=O)NC[C@H](O)CN3CCc4c(ccc(OCc5cnco5)c4C)C3)ncn2)C1` [Compound 518, N-[(2S)-2-hydroxy-3-{5-methyl-6-[(1,3-oxazol-5-yl)methoxy]-1,2,3,4-tetrahydroisoquinolin-2-yl}propyl]-6-{[1-(2-methoxyacetyl)azetidin-3-yl]amino}pyrimidine-4-carboxamide], for which the IC50 on PRMT5 [1] is 0.5 to 5 µM; against PRMT5 [2], ≥ 5 µM; at PRMT5 [3], 0.5 to 5 µM. The “SAM/MTA Ratio” value on PRMT5 [3] (setting [4]) is “A (a Ki ratio greater than or equal to 10 fold between the Ki in the presence of SAM and the Ki in the presence of MTA)”.

On to `Cn1nccc1COc1ccc2c(c1)CCN(C[C@@H](O)CNC(=O)c1cc(NC3CCC3)ccn1)C2` [Compound 542, (S)-4-(cyclobutylamino)-N-(2-hydroxy-3-(6-((1-methyl-1H-pyrazol-5-yl)methoxy)-3N-dihydroisoquinolin-2(1H)-yl)propyl)picolinamide], for which the IC50 at PRMT5 [1] is 0.5 to 5 µM; at PRMT5 [2], ≥ 5 µM; at PRMT5 [3] it was 0.05 to 0.5 µM. In addition, the “SAM/MTA Ratio” value on PRMT5 [3] (setting [4]) was “A (a Ki ratio greater than or equal to 10 fold between the Ki in the presence of SAM and the Ki in the presence of MTA)”.

Turning to `COCCN(C)c1cc(NC2CCN(C(C)=O)CC2)cc(C(=O)NC[C@H](O)CN2CCc3cc(OCc4ocnc4C)ccc3C2)c1` (single isomer, unassigned) [Compound 649], the results for the IC50 on PRMT5 [1], at PRMT5 [2] (read-out: No Co-factor IC50) and on PRMT5 [3] were 0.5 to 5 µM, ≥ 5 µM and 0.5 to 5 µM, respectively. The “SAM/MTA Ratio” value at PRMT5 [3] (setting [5]) was “A (a Ki ratio greater than or equal to 10 fold between the Ki in the presence of SAM and the Ki in the presence of MTA)”.

`Cc1ncoc1COc1ccc2c(c1)[C@@H](O)CN(C[C@@H](O)CNC(=O)c1ccnc(NC3CCC3)c1)C2` (single isomer, unassigned) [Compound 505]: the IC50 is 0.5 to 5 µM at PRMT5 [1], ≥ 5 µM on PRMT5 [2] and 0.5 to 5 µM at PRMT5 [3]. Further, on PRMT5 [3] (setting [4]), the “SAM/MTA Ratio” value was “A (a Ki ratio greater than or equal to 10 fold between the Ki in the presence of SAM and the Ki in the presence of MTA)”.

For `Cc1c(OCc2cnco2)cc(F)c2c1CCN(C[C@H](O)CNC(=O)c1ccnc(NC3CCC3)c1)C2` [Compound 332, 2-(cyclobutylamino)-N-[(2R)-3-[8-fluoro-5-methyl-6-(oxazol-5-ylmethoxy)-3,4-dihydro-1H-isoquinolin-2-yl]-2-hydroxy-propyl]pyridine-4-carboxamide], the IC50 on PRMT5 [1] is 0.5 to 5 µM; on PRMT5 [2] (read-out: No Co-factor IC50) it was ≥ 5 µM; at PRMT5 [3], 0.5 to 5 µM. In addition, on PRMT5 [3] (setting [5]), the “SAM/MTA Ratio” value is “A (a Ki ratio greater than or equal to 10 fold between the Ki in the presence of SAM and the Ki in the presence of MTA)”.

As for `CC(=O)N1CCC(Nc2cc(C(=O)NC[C@@H](O)CN3CCc4c(C)c(OCc5ocnc5C)cc(F)c4C3)cc(N3CCCCC3)n2)CC1` [Compound 652], the IC50 on PRMT5 [1] was in the range of 0.05 to 0.5 µM; at PRMT5 [2] (read-out: No Co-factor IC50), 0.5 to 5 µM; at PRMT5 [3], 0.05 to 0.5 µM. In addition, at PRMT5 [3] (setting [5]), the “SAM/MTA Ratio” value was “A (a Ki ratio greater than or equal to 10 fold between the Ki in the presence of SAM and the Ki in the presence of MTA)”.

Consider `CO[C@H]1CC[C@@H](Nc2cc(C(=O)NC[C@H](O)CN3CCc4c(ccc(OCc5cnco5)c4C)C3)ncn2)CC1` [Compound 541, N-[(2S)-2-hydroxy-3-{5-methyl-6-[(1,3-oxazol-5-yl)methoxy]-1,2,3,4-tetrahydroisoquinolin-2-yl}propyl]-6-{[(1s,4s)-4-methoxycyclohexyl]amino}pyrimidine-4-carboxamide], for which the values for the IC50 on PRMT5 [1], at PRMT5 [2] and at PRMT5 [3] were 0.5 to 5 µM, ≥ 5 µM and 0.05 to 0.5 µM, respectively. At PRMT5 [3] (setting [4]), the “SAM/MTA Ratio” value was “A (a Ki ratio greater than or equal to 10 fold between the Ki in the presence of SAM and the Ki in the presence of MTA)”.

Take `CCCN(C)c1cc(C(=O)NC[C@H](O)CN2CCc3cc(OCc4ocnc4C)ccc3C2)cc(NC2CCC2)n1` [Compound 553, 2-(cyclobutylamino)-N-[(2S)-2-hydroxy-3-{6-[(4-methyl-1,3-oxazol-5-yl)methoxy]-1,2,3,4-tetrahydroisoquinolin-2-yl}propyl]-6-[methyl(propyl)amino]pyridine-4-carboxamide]: the results for the IC50 at PRMT5 [1], against PRMT5 [2] and at PRMT5 [3] were 0.5 to 5 µM, ≥ 5 µM and 0.05 to 0.5 µM, respectively. The “SAM/MTA Ratio” value at PRMT5 [3] (setting [4]) is “A (a Ki ratio greater than or equal to 10 fold between the Ki in the presence of SAM and the Ki in the presence of MTA)”.

Turning to `Cc1c(OCc2cnco2)ccc2c1CCN(C[C@@H](O)CNC(=O)c1cc(NC3CN(C(=O)CC(C)C)C3)ncn1)C2` [Compound 565, N-[(2S)-2-hydroxy-3-{5-methyl-6-[(1,3-oxazol-5-yl)methoxy]-1,2,3,4-tetrahydroisoquinolin-2-yl}propyl]-6-{[1-(3-methylbutanoyl)azetidin-3-yl]amino}pyrimidine-4-carboxamide], the IC50 at PRMT5 [1] was 0.5 to 5 µM; against PRMT5 [2] it was ≥ 5 µM; at PRMT5 [3], 0.5 to 5 µM. Also, the “SAM/MTA Ratio” value at PRMT5 [3] (setting [4]) is “A (a Ki ratio greater than or equal to 10 fold between the Ki in the presence of SAM and the Ki in the presence of MTA)”.

As to `COCCN(C)c1cc(NC2CCN(C(C)=O)CC2)cc(C(=O)NC[C@@H](O)CN2CCc3cc(OCc4ocnc4C)ccc3C2)c1` (single isomer, unassigned) [Compound 648], the figures for the IC50 at PRMT5 [1], at PRMT5 [2] (read-out: No Co-factor IC50) and at PRMT5 [3] were 0.05 to 0.5 µM, ≥ 5 µM and 0.05 to 0.5 µM, respectively. The “SAM/MTA Ratio” value at PRMT5 [3] (setting [5]) is “A (a Ki ratio greater than or equal to 10 fold between the Ki in the presence of SAM and the Ki in the presence of MTA)”.

For `O=C(NC[C@H](O)CN1CCc2c(ccc(OCc3cnco3)c2Cl)C1)c1cc(NC2CCC2)ncn1` [Compound 508, (S)—N-(3-(5-chloro-6-(oxazol-5-ylmethoxy)-3,4-dihydroisoquinolin-2(1H)-yl)-2-hydroxypropyl)-6-(cyclobutylamino)pyrimidine-4-carboxamide], the IC50 was 0.5 to 5 µM at PRMT5 [1], ≥ 5 µM at PRMT5 [2] and 0.05 to 0.5 µM on PRMT5 [3]. At PRMT5 [3] (setting [4]), the “SAM/MTA Ratio” value is “A (a Ki ratio greater than or equal to 10 fold between the Ki in the presence of SAM and the Ki in the presence of MTA)”.

`Cc1ncoc1COc1ccc2c(c1)CCN(C[C@@H](O)CNC(=O)c1ccnc(NC3CCN(C)C(=O)C3)c1)C2` (some centres unmarked) [Compound 627]: the IC50 was 0.05 to 0.5 µM on PRMT5 [1], ≥ 5 µM on PRMT5 [2] (read-out: No Co-factor IC50) and 0.05 to 0.5 µM on PRMT5 [3]. The “SAM/MTA Ratio” value on PRMT5 [3] (setting [5]) is “A (a Ki ratio greater than or equal to 10 fold between the Ki in the presence of SAM and the Ki in the presence of MTA)”.

`CC(=O)N1CC(Nc2cc(C(=O)NC[C@H](O)CN3CCc4cc(OCc5cnco5)ccc4C3)ncn2)C1` [Compound 562, (S)-6-((1-acetylazetidin-3-yl)amino)-N-(2-hydroxy-3-(6-(oxazol-5-ylmethoxy)-3A-dihydroisoquinolin-2(1H)-yl)propyl)pyrimidine-4-carboxamide]: the IC50 at PRMT5 [1] is 0.5 to 5 µM; against PRMT5 [2] it was ≥ 5 µM; on PRMT5 [3], 0.05 to 0.5 µM. Besides, the “SAM/MTA Ratio” value at PRMT5 [3] (setting [4]) is “A (a Ki ratio greater than or equal to 10 fold between the Ki in the presence of SAM and the Ki in the presence of MTA)”.

Source of the values: patent US11986471B2, “Compounds and methods of use” (Tango Therapeutics, Inc., priority 2018, dated 2024).
